In US11247973B2 (The University of Durham, priority 2016, dated 2022):

Tests used:
[1] = Microsomal clearance, dog; format: in vitro ADME; details: male, Beagle, pooled liver microsomes
Experimental: (§1) Pooled human liver microsomes (pooled male and female), pooled rat liver microsomes (male Sprague Dawley rats) and pooled dog liver microsomes (male Beagle dog) are purchased from a reputable commercial supplier and stored at −80° C. prior to use.
(§2) Microsomes (final protein concentration 0.5 mg/mL), 0.1 M phosphate buffer pH 7.4 and compound 2 (final substrate concentration 3 μM; final DMSO concentration 0.25%) are pre-incubated at 37° C. prior to the addition of NADPH (final concentration 1 mM) to initiate the reaction. The final incubation volume is 50 μL. A control incubation is included for each compound tested where 0.1 M phosphate buffer pH 7.4 is added instead of NADPH (minus NADPH). Two control compounds are included with each species. All incubations are performed singularly for each test compound.
(§3) Compounds are incubated for 0, 5, 15, 30 and 45 min. The control (minus NADPH) is incubated for 45 min only. The reactions are stopped by transferring 25 μL of incubate to 50 μL methanol at the appropriate time points. […] Following protein precipitation, the sample supernatants are combined in cassettes of up to 4 compounds, internal standard is added and samples analysed by LC-MS/MS. From a plot of ln peak area ratio (compound peak area/internal standard peak area) against time, the gradient of the line is determined.

MTT cell toxicity assay = format: cell-based; details: African green monkey, Vero cells
Experimental: Vero cells were seeded in 96-well plates in a volume of 100 μL Optimem media supplemented with 1% FBS at a concentration of 1×10^4 cells per well. After an overnight incubation at 37° C. in a humidified 5% CO2 atmosphere, the monolayer of cells should be approximately 90% confluent. Compound 2 was titrated in pre-warmed Serum Free (SF) Optimem in a U-bottom 96 well plate. For compounds in a DMSO solution, titration in 100% DMSO was performed first and each concentration added individually to a 2× final concentration at 4% DMSO. Media was then removed from cells and replaced with titrated compounds (100 μl/well). Cells were incubated at 37° C. in a humidified 5% CO2 atmosphere for 48 hours.
The MTT solution on Optimem (4 mg/ml) was prepared and 2 ul added to each well before it was incubated for 2 hours at 37° C. in a humidified 5% CO2 atmosphere. Media was then removed from the cells and DMSO added (50 ul/well). Plates were placed on a shaker prior to reading in a Spectromax at 570 nm. Data was normalised relative to untreated controls (1% DMSO only) and CC50 values determined using non-linear regression analysis with Graphpad Prism software.

[2] = Cell cytotoxicity CC50 assay (A549 and HeLa cells); format: cell-based; details: human, 6-8 days, DMEM+2% FCS
Source text: Cells were obtained from ATCC and the virus preparation was subjected to one round of centrifugation through a 40% (V/V) glycerol to remove any interferon produced from infected cells. Growth medium was Dulbecco's modified Eagle's medium (DMEM) with 10% (v/v) foetal calf serum (FCS), Viral maintainance medium was DMEM+2% (v/v) FCS.
Cell Cytotoxicity—CC50 (Concentration at which 50% Cell Toxicity is Observed):
A549 cells and HeLa cells were used to seed a set of 96 well plates grown until 50% confluent, a 2 fold serial dilution of the compound was performed on each cell line with DMSO (only) as control starting with 100 μM of the compound. Medium used was DMEM+2% FCS (normal medium for viral growth).
Cells were allowed to grow for 6-8 days to mimic a TCID50 assay after which cell viability was determined by adding Almar blur (similar to XT) and reading at 600 nm (excitation 540 nm).

[3] = Microsomal clearance, rat; format: in vitro ADME; details: male, Sprague Dawley, pooled liver microsomes
Experimental: as §1, §2, §3

**Q.** With `O=C(CNc1c(F)c(F)nc(F)c1F)N[C@H]1N=C(c2ccccc2)c2ccccc2NC1=O` [Compound 2] as the compound, how does the microsomal CLint at 3 μM ([1]; pH 7.4, 0.5 mg/mL protein, read-out: Intrinsic clearance - dog) read?
**A.** 7.05 µL/min/mg

**Q.** What about the half-life at 3 μM ([1]; pH 7.4, read-out: t½ - dog) of the same compound?
**A.** 3.28 h

**Q.** And the CC50 at 48 h (MTT cell toxicity assay)?
**A.** 63 µM

**Q.** And the CC50 [2]?
**A.** 100 µM

**Q.** And the microsomal CLint at 3 μM ([3]; pH 7.4, 0.5 mg/mL protein, read-out: Intrinsic clearance - rat)?
**A.** 29.2 µL/min/mg

**Q.** What about the half-life at 3 μM ([3]; pH 7.4, read-out: t½ - rat) of the same compound?
**A.** 0.792 h
